Assay results taken from patent US20230040770A1, “HETEROCYCLIC COMPOUND AND USE THEREOF” (TAKEDA PHARMACEUTICAL COMPANY LIMITED, priority 2019, published 2023).

biological target: T1, human orexin type 2 receptor (Homo sapiens, UniProt O43614); assay: Measurement of orexin type 2 receptor agonist activity (calcium indicator fluorescence, CHO cells forcibly expressing human OX2 receptor); type: cell-based; details: compound at 3 μM; 0% = DMSO, 100% = orexin A (human) 10 nM
T1 construct: expressed in transfected cells
T1 sequence (O43614 1-444): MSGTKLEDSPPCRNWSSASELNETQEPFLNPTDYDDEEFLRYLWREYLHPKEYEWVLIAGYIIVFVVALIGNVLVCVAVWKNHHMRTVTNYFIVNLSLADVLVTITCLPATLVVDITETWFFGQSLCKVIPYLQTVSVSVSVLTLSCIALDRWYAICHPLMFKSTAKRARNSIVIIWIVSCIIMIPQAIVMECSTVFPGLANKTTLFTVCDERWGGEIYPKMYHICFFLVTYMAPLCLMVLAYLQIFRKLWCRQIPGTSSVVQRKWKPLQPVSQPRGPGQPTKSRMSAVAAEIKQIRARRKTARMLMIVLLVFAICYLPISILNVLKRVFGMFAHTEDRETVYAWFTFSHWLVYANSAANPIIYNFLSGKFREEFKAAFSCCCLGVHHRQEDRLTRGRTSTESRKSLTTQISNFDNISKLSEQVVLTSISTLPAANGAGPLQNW
Summary of the method: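 CHO-dhfr cells stably expressing human OX2R, loaded with Fluo-4 AM (30 min 37 °C, then 30 min RT), then given test compound. Calcium fluorescence read by FDSS over ~2 min. Activity (%) scaled from DMSO (0%) to 10 nM final orexin A (100%).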

Compared with `CS(=O)(=O)N[C@H]1[C@@H](F)CN(C(=O)C2CCO2)[C@H]1Cc1cccc(-c2cc(F)cc(F)c2)c1F` (stereo partly drawn) [Example 324, N-{(2S,3R,4S)-4-fluoro-1-(oxetane-3-2-carbonyl)-2-[(2,3′,5′-trifluoro[1,1′-biphenyl]-3-yl)methyl]pyrrolidin-3-yl}methanesulfonamide], `Cc1cc(F)cc(-c2cccc(C[C@H]3[C@@H](NS(=O)(=O)C4CC4)[C@@H](F)CN3C(=O)C3CCO3)c2F)c1` (stereo partly drawn) [Example 486, N-[(2S,3R,4S)-2-[(2,3′-difluoro-5′-methyl[1,1′-biphenyl]-3-yl)methyl]-4-fluoro-1-(oxetane-2-carbonyl)pyrrolidin-3-yl]cyclopropanesulfonamide] is lower in “OX2R agonist activity (3 μM, %)” value: 91% for the first, 88% for the second.

First: CCS(=O)(=O)N[C@@H]1[C@H](Cc2cccc(-c3cccc(C)c3)c2F)N(C(=O)N(C)C)CC1(F)F [Example 284, (2S,3R)-3-[(ethanesulfonyl)amino]-4,4-difluoro-2-[(2-fluoro-3′-methyl[1,1′-biphenyl]-3-yl)methyl]-N,N-dimethylpyrrolidine-1-carboxamide]
Second: CCS(=O)(=O)N[C@@H]1[C@H](Cc2cccc(-c3cccc(C)c3)c2F)N(C(=O)N2CCC2)CC1(F)F [Example 285, N-{(2S,3R)-1-(azetidine-1-carbonyl)-4,4-difluoro-2-[(2-fluoro-3′-methyl[1,1′-biphenyl]-3-yl)methyl]pyrrolidin-3-yl}ethanesulfonamdie]
The “OX2R agonist activity (3 μM, %)” value of the first is lower: 92% for the first, 98% for the second.

First: CCS(=O)(=O)N[C@H]1[C@@H](F)CN(C(=O)C(C)(C)O)[C@H]1Cc1cccc(-c2cccc(Cl)c2F)c1F [Example 347, N-[(2S,3R,4S)-2-[(3′-chloro-2,2′-difluoro[1,1′-biphenyl]-3-yl)methyl]-4-fluoro-1-(2-hydroxy-2-methylpropanoyl)pyrrolidin-3-yl]ethanesulfonamide]
Second: CCS(=O)(=O)N[C@H]1[C@@H](F)CN(C(=O)C2CC2)[C@H]1Cc1cccc(-c2cc(F)ccc2F)c1F [Example 238, N-{(2S,3R,4S)-1-(cyclopropanecarbonyl)-4-fluoro-2-[(2,2′,5′-trifluoro[1,1′-biphenyl]-3-yl)methyl]pyrrolidin-3-yl}ethanesulfonamide]
The “OX2R agonist activity (3 μM, %)” value of the first is higher: 102% for the first, 98% for the second.

First: CCCC(=O)N1CC(F)(F)[C@H](NS(=O)(=O)CC)[C@@H]1Cc1cccc(-c2cccc(F)c2)c1F [Example 257, N-{(2S,3R)-1-butanoyl-2-[(2,3′-difluoro[1,1′-biphenyl]-3-yl)methyl]-4,4-difluoropyrrolidin-3-yl}ethanesulfonamide]
Second: CCS(=O)(=O)N[C@@H]1[C@H](Cc2cccc(-c3cccc(OC(F)F)c3)c2F)N(C(=O)C(C)C)CC1(F)F [Example 549, N-[(2S,3R)-2-{[3′-(difluoromethoxy)-2-fluoro[1,1′-biphenyl]-3-yl]methyl}-4,4-difluoro-1-(2-methylpropanoyl)pyrrolidin-3-yl]ethanesulfonamide]
The “OX2R agonist activity (3 μM, %)” value of the first is higher: 96% for the first, 94% for the second.

Going from `CCS(=O)(=O)N[C@@H]1[C@H](Cc2cccc(-c3cc(F)ccc3F)c2F)N(C(=O)C2CCO2)CC1(F)F` (stereo partly drawn) [Example 356, N-{(2S,3R)-4,4-difluoro-1-(oxetane-2-carbonyl)-2-[(2,2′,5′-trifluoro[1,1′-biphenyl]-3-yl)methyl]pyrrolidin-3-yl}ethanesulfonamide] to `CCS(=O)(=O)N[C@@H]1[C@H](Cc2cccc(-c3ccc(F)c(C)c3F)c2F)N(C(=O)C2CCO2)CC1(F)F` (stereo partly drawn) [Example 478, N-{(2S,3R)-4,4-difluoro-1-(oxetane-2-carbonyl)-2-[(2,2′,4′-trifluoro-3′-methyl[1,1′-biphenyl]-3-yl)methyl]pyrroldiin-3-yl}ethanesulfonamide], the “OX2R agonist activity (3 μM, %)” value rises from 97% to 103%.

First: CCS(=O)(=O)N[C@@H]1[C@H](Cc2cccc(-c3cc(F)cc(F)c3)c2F)N(C(=O)C2(O)CCC2)CC1(F)F [Example 272, N-{(2S,3R)-4,4-difluoro-1-(1-hydroxycyclobutane-1-carbonyl)-2-[(2,3′,5′-trifluoro[1,1′-biphenyl]-3-yl)methyl]pyrrolidin-3-yl}ethanesulfonamide]
Second: CN(C)S(=O)(=O)N[C@@H]1[C@H](Cc2cccc(-c3cccc(F)c3F)c2F)N(C(=O)C2(O)CCC2)CC1(F)F [Example 438, N′-{(2S,3R)-4,4-difluroo-1-(1-hydroxycyclobutane-1-carbonyl)-2-[(2,2′,3′-trifluoro[1,1′-biphenyl]-3-yl)methyl]pyrrolidin-3-yl}-N,N-dimethylsulfuric diamide]
The “OX2R agonist activity (3 μM, %)” value of the first is lower: 88% for the first, 95% for the second.

First: Cc1cc(F)cc(-c2cccc(C[C@H]3[C@@H](NS(=O)(=O)C4CC4)C(F)(F)CN3C(=O)[C@H]3CCO3)c2F)c1 [Example 533, N-{(2S,3R)-2-[(2,3′-difluoro-5′-methyl[1,1′-biphenyl]-3-yl)methyl]-4,4-difluoro-1-[(2R)-oxetane-2-carbonyl]pyrrolidin-3-yl}cyclopropanesulfonamide]
Second: O=C(C1CCO1)N1CC(F)(F)[C@H](NS(=O)(=O)C2CC2)[C@@H]1Cc1cccc(-c2cc(F)cc(F)c2)c1F (stereo partly drawn) [Example 162, N-{(2S,3R)-4,4-difluoro-1-(oxetane-2-carbonyl)-2-[(2,3′,5′-trifluoro[1,1′-biphenyl]-3-yl)methyl]pyrrolidin-3-yl}cyclopropanesulfonamide]
The “OX2R agonist activity (3 μM, %)” value of the first is higher: 101% for the first, 92% for the second.

Going from `CS(=O)(=O)N[C@@H]1[C@H](Cc2cccc(-c3cc(F)cc(Cl)c3)c2F)N(C(=O)C2CC2)CC1(F)F` [Example 245, N-[(2S,3R)-2-[(3′-chloro-2,5′-difluoro[1,1′-biphenyl]-3-yl)methyl]-1-(cyclopropanecarbonyl)-4,4-difluoropyrrolidin-3-yl]methanesulfonamide] to `CCS(=O)(=O)N[C@@H]1[C@H](Cc2cccc(-c3cccc(F)c3F)c2F)N(C(=O)C2CC2)CC1(F)F` [Example 204, N-{(2S,3R)-1-(cyclopropanecarbonyl)-4,4-difluoro-2-[(2,2′,3′-trifluoro[1,1′-biphenyl]-3-yl)methyl]pyrrolidin-3-yl}ethanesulfonamide], the “OX2R agonist activity (3 μM, %)” value falls from 94% to 89%.

Compared with `CCS(=O)(=O)N[C@@H]1[C@H](Cc2cccc(-c3cccc(C(F)F)c3)c2F)N(C(=O)C2CC(F)C2)CC1(F)F` (stereo partly drawn) [Example 506, N-[(2S,3R)-2-{[3′-(difluoromethyl)-2-fluoro[1,1′-biphenyl]-3-yl]methyl}-4,4-difluoro-1-(3-fluorocyclobutane-1-carobnyl)pyrrolidin-3-yl]ethanesulfonamide], `CCS(=O)(=O)N[C@@H]1[C@H](Cc2cccc(-c3cccc(C(F)F)c3)c2F)N(C(=O)C2CCO2)CC1(F)F` (stereo partly drawn) [Example 504, N-[(S,3R)-2-{[3′-(difluoromethyl)-2-fluoro[1,1′-biphenyl]-3-yl]methyl}-4,4-difluoro-1-(oxetane-2-carbonyl)pyrrolidin-3-yl]ethanesulfonamide] is lower in “OX2R agonist activity (3 μM, %)” value: 100% for the first, 90% for the second.

Going from `CCS(=O)(=O)N[C@@H]1[C@H](Cc2cccc(-c3cccc(F)c3F)c2)N(C(=O)C2CCO2)CC1(F)F` (stereo partly drawn) [Example 174, N -[(2S,3R)-2-[(2′,3′-difluoro[1,1′-biphenyl]-3-yl)methyl]-4,4-difluoro-1-(oxetane-2-carbonyl)pyrrolidin-3-yl]ethanesulfonamide] to `CCS(=O)(=O)N[C@@H]1[C@H](Cc2cccc(-c3ccccc3)c2F)N(C(=O)C(C)C)CC1(F)F` [Example 106, N-[(2S,3R)-4,4-difluoro-2-[(2-fluoro[1,1′-biphenyl]-3-yl)methyl]-1-(2-methylpropanoyl)pyrrolidin-3-yl]ethanesulfonamide], the “OX2R agonist activity (3 μM, %)” value rises from 90% to 97%.

Compared with `CC(C)C(=O)N1CC(F)(F)[C@H](NS(C)(=O)=O)[C@@H]1Cc1cccc(-c2ccccc2)c1F` [Example 77, N-[(2S,3R)-4,4-difluoro-2-[(2-fluoro[1,1′-biphenyl]-3-yl)methyl]-1-(2-methylpropanoyl)pyrrolidin-3-yl]methanesulfonamide], `Cc1cccc(-c2cccc(C[C@H]3[C@@H](NS(=O)(=O)N(C)C)C(F)(F)CN3C(=O)N3CCC3)c2F)c1F` [Example 545, N′-{(2S,3R)-1-(azetidine-1-carbonyl)-2-[(2,2′-difluoro-3′-methyl[1,1′-biphenyl]-3-yl)methyl]-4,4-difluoropyrrolidin-3-yl}-N,N-dimethylsulfuric diamide] is lower in “OX2R agonist activity (3 μM, %)” value: 95% for the first, 93% for the second.

Compared with `CCS(=O)(=O)N[C@H]1[C@@H](F)CN(C(=O)N(C)C)[C@H]1Cc1cccc(-c2ccc(F)c(C)c2)c1F` [Example 409, (2S,3R,4S)-2-[(2,4′-difluoro-3′-methyl[1,1′-biphenyl]-3-yl)methyl]-3-[(ethanesulfonyl)amino]-4-fluoro-N,N-dimethylpyrrolidine-1-carboxamide], `CN(C)C(=O)N1C[C@H](F)[C@H](NS(=O)(=O)N(C)C)[C@@H]1Cc1cccc(-c2cccc(F)c2)c1F` [Example 344, (2S,3R,4S)-2-[(2,3′-difluoro[1,1′-biphenyl]-3-yl)methyl]-3-[(dimethylsulfamoyl)amino]-4-fluoro-N,N-dimethylpyrrolidine-1-carboxamide] is higher in “OX2R agonist activity (3 μM, %)” value: 92% for the first, 102% for the second.
